Reference: ChEMBL document CHEMBL5247670, “TMPRSS2 Inhibitor Discovery Facilitated through an In Silico and Biochemical Screening Platform” (ACS Med Chem Lett, 2023)
Active and inactive are the calls of the source. No cut-off for these calls is given here.

Tests used:
[1] = target: Transmembrane protease serine 2 (Homo sapiens, UniProt O15393); test: Inhibition of TMPRSS2 (106 to 492 residues) (unknown origin) using Boc-QAR-AMC as substrate measured for 20 mins by spectrophotometer analysis
[2] = system: Calu-3; test: Cytotoxicity against human Calu-3 cells assessed as reduction in cell viability; assay type: functional
[3] = system: SARS-CoV-2; test: Antiviral activity against SARS-CoV-2 B.1.1.7 infected in human Caco-2 cells assessed as inhibition of viral infection preincubated for 1 hr followed by viral infection measured after 48 hrs by Hoechst 33342 staining based analysis; assay type: functional, organism-based; settings: Severe acute respiratory syndrome coronavirus 2, time 49.0 hrs
[4] = system: SARS-CoV-2; test: Antiviral activity against SARS-CoV-2 B.1.1.7 infected in human Calu-3 cells assessed as inhibition of viral infection preincubated for 1 hr followed by viral infection measured after 48 hrs by Hoechst 33342 staining based analysis; assay type: functional, organism-based; settings: Severe acute respiratory syndrome coronavirus 2, B.1.1.7, Calu-3
[5] = system: Calu-3; test: Cytotoxicity against human Calu-3 cells assessed as reduction in cell viability upto 500 uM measured after 48 hrs by Hoechst 33342 staining based analysis; assay type: toxicity; settings: calu-3, 48 h

Chain of Transmembrane protease serine 2 (O15393 1-255 limits assumed): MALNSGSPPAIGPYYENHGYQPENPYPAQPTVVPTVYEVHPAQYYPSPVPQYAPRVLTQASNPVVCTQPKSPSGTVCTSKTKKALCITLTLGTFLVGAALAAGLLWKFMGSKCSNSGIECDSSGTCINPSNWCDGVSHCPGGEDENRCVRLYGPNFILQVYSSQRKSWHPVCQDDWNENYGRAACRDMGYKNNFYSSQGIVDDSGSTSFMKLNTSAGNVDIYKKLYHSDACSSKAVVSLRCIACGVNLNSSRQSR
Chain of Transmembrane protease serine 2 (O15393 256-492 limits assumed): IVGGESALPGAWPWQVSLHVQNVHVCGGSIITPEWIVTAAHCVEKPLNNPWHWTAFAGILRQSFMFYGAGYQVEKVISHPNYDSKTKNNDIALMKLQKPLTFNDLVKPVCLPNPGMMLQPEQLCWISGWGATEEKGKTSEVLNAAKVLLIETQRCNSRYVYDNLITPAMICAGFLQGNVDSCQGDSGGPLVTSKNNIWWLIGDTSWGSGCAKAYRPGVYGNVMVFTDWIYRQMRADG

Compound	IC50 [1]	CC50 [2]	Activity [3]	IC50 [4]	Activity [5]
Cc1ccc(C(=O)Nc2ccc3c(c2)CCN(C(=N)N)C3)cc1	4 µM	–	–	–	–
N=C(N)N1CCc2cc(NC(=O)c3ccc4ccccc4c3)ccc2C1	4 µM	–	–	–	–
N=C(N)N1CCc2cc(NC(=O)c3cccc4ccccc34)ccc2C1	3.4 µM	–	–	–	–
N=C(N)N1CCc2ccccc2C1 [DEBRISOQUIN]	23 µM	> 500 µM	inactive	22 µM	Non-Toxic
N=C(N)c1ccc(OCCCOc2ccc(C(=N)N)cc2)cc1 [PROPAMIDINE]	–	> 500 µM	–	–	–
